{"source": "patent US9408871B2", "about": "“Methods for inhibiting complement activation and uses thereof” (THE UNIVERSITY OF BRITISH COLUMBIA, priority 2013, dated 2016)", "target": "T1, C1-esterase inhibitor (C1-inh) (Homo sapiens, UniProt P05155)", "T1 sequence (P05155 23-500)": "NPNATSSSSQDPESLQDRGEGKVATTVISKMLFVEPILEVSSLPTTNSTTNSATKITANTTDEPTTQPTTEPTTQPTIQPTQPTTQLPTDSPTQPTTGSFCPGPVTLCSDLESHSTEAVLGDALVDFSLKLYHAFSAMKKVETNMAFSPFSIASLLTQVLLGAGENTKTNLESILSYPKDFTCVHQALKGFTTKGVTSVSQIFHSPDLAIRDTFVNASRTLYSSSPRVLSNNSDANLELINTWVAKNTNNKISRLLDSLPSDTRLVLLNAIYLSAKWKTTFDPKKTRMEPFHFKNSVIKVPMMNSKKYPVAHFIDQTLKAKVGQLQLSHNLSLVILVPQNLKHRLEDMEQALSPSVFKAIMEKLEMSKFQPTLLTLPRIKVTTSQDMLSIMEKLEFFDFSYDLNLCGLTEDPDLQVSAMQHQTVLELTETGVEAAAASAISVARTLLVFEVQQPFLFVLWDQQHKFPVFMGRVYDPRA", "experiment": "C1s-mediated cleavage of C2 in the presence of C1-inh (SDS-PAGE)", "format": "biochemical", "details": "10-500 μM, 6 nM C1s, 5 nM C1-inh", "experimental": "We tested whether polyP affects the inhibitory properties of C1-inh on C1s-mediated cleavage and activation of complement factor C4 and C2. SDS-PAGE followed by coomassie staining of gels was used to monitor cleavage of C4 by C1s in the presence/absence of C1-inh and/or polyP in a purified system.\nBriefly, 6 nM C1s with 10-500 μM of polyP1000 were incubated in 20 mM Hepes, 0.15 M NaCl, pH 7.5, 0.01% Tween buffer for 90 minutes at 37° C. 5 nM C1-inh was added and incubated for 30 minutes. C2 was added and incubated for 5 minutes at 37° C. The reactions were quenched with 5× loading buffer and β-ME."}
{"smiles": "O=P(O)(O)O", "note": "[P1, Orthophosphate]", "values": [{"measurement": "effect on activity of C1-inh in interfering with C1s-mediated cleavage of C2", "result": "had no effect"}]}
